The values that follow are results of earlier work, collected in US20070197495A1, “ANTI-PARASITIC COMPOUNDS AND METHODS OF THEIR USE” (THE REGENTS OF THE UNIVERSITY OF CALIFORNIA, priority 2004, published 2007).

In data set [1] the test system is T. cruzi. The settings on record: mouse model study (Engel et al. 1998).
For data set [2], the system named is T. cruzi. The settings on record: cruzain inhibitor added to cultures of mammalian cells exposed to trypomastigotes or already infected with amastigotes.

For `CN1CCN(C(=O)NC(Cc2ccccc2)C(=O)NC(C=CS(=O)(=O)c2ccccc2)CCc2ccccc2)CC1` (centres unmarked) [N-methyl piperazine-Phe-homoPhe-vinyl sulfone phenyl], the “outcome of treatment of T. cruzi-infected mice” value in the data set with T. cruzi [1] was “cure”.
Take “benzyloxy-carbonyl-L-phenylalanyl L-alanine fluoromethyl ketone [Z-Phe-Ala-FMK]”: in the data set with T. cruzi [2], the “replication and differentiation of the parasite” value is “blocks replication and differentiation of the parasite”.
